Assay: Ex vivo tissue distribution in normal ICR mice
Conditions: for tissue radioactivity, Adrenal / tissue radioactivity, Blood / tissue radioactivity, Brain / tissue radioactivity, Femur / tissue radioactivity, Heart / tissue radioactivity, Kidney / tissue radioactivity, L. Intestine / tissue radioactivity, Liver / tissue radioactivity, Lung / tissue radioactivity, Muscle / tissue radioactivity, S. Intestine / tissue radioactivity, Spleen / tissue radioactivity, Stomach: normal ICR mice, tail-vein injection
Experimental: Purified [^18F]CB251 was reconstituted in a 10% ethanol-saline solution. Animals were killed at various times after tail-vein injection of [^18F]CB251 (0.74 MBq/0.2 mL per mouse) and the radioactivity concentrations were measured in various tissues upon dissection. […] The radioactivity concentration in the femur remained low for 120 min (1.19 ± 0.50%ID/g at 5 min post injection; 1.49 ± 0.80%ID/g at 120 min post injection).
Tissue distribution studies were performed in normal male ICR mice (7 weeks, 25-30 g) with tail-vein administration of [^18F]CB251 (0.74 MBq/mouse) dissolved in 10% ethanol in saline to a final volume of 200 μL. The animals (n = 5 for each time point) were euthanised with diethyl ether at 5, 15, 30, 60 and 120 min post injection. After the mice were euthanised, blood and other organs such as the heart, liver, lung, stomach, spleen, kidney, intestine, muscle, brain, adrenal and femur were removed, weighed and counted for radioactivity in a NaI (Tl) well counter (Wizard^TM3”, PerkinElmer). The injected dose was calculated from standards prepared from the injection solution. The accumulated radioactivity of all tissues is presented as the percentage of the injected dose per gram of tissue (%ID/g). All animal studies were performed with the approval of the Institutional Animal Care and Use Committee of the Seoul National University Bundang Hospital (SNUBH) and the methods were carried out in accordance with the approved guidelines.

SMILES: CCCN(CCC)C(=O)Cc1c(-c2ccc(OCC[18F])cc2)nc2c(Cl)cc(Cl)cn12 [[^18F]CB251, 2-(2-(4-(2-[^18F]fluoroethoxy)phenyl)-6,8-dichloroimidazo[1,2-a]pyridin-3-yl)-N,N-dipropylacetamide]
- uptake of radioactivity in the femur (healthy mice, summary bound in text, indicates negligible defluorination): < 2 %ID/g
- uptake in TSPO-enriched tissues (male, ICR, mouse, in vivo): > 22 %ID/g
- tissue radioactivity, Adrenal (5 min post injection): 19.06 ± 5.48 %ID/g
- tissue radioactivity, Adrenal (15 min post injection): 22.60 ± 5.00 %ID/g
- tissue radioactivity, Adrenal (30 min post injection): 19.73 ± 3.42 %ID/g
- tissue radioactivity, Adrenal (60 min post injection): 12.69 ± 5.62 %ID/g
- tissue radioactivity, Adrenal (120 min post injection): 14.78 ± 8.26 %ID/g
- tissue radioactivity, Blood (5 min post injection): 4.39 ± 0.78 %ID/g
- tissue radioactivity, Blood (15 min post injection): 2.17 ± 0.40 %ID/g
- tissue radioactivity, Blood (30 min post injection): 1.24 ± 0.26 %ID/g
- tissue radioactivity, Blood (60 min post injection): 0.60 ± 0.12 %ID/g
- tissue radioactivity, Blood (120 min post injection): 0.64 ± 0.26 %ID/g
- tissue radioactivity, Brain (5 min post injection): 2.89 ± 0.23 %ID/g
- tissue radioactivity, Brain (15 min post injection): 1.94 ± 0.24 %ID/g
- tissue radioactivity, Brain (30 min post injection): 1.39 ± 0.13 %ID/g
- tissue radioactivity, Brain (60 min post injection): 0.63 ± 0.24 %ID/g
- tissue radioactivity, Brain (120 min post injection): 0.53 ± 0.23 %ID/g
- tissue radioactivity, Femur (5 min post injection): 1.19 ± 0.50 %ID/g
- tissue radioactivity, Femur (15 min post injection): 1.25 ± 0.41 %ID/g
- tissue radioactivity, Femur (30 min post injection): 1.94 ± 0.36 %ID/g
- tissue radioactivity, Femur (60 min post injection): 1.41 ± 0.64 %ID/g
- tissue radioactivity, Femur (120 min post injection): 1.49 ± 0.80 %ID/g
- tissue radioactivity, Heart (5 min post injection): 29.49 ± 2.36 %ID/g
- tissue radioactivity, Heart (15 min post injection): 24.16 ± 4.67 %ID/g
- tissue radioactivity, Heart (30 min post injection): 23.11 ± 5.16 %ID/g
- tissue radioactivity, Heart (60 min post injection): 10.47 ± 4.50 %ID/g
- tissue radioactivity, Heart (120 min post injection): 8.62 ± 4.57 %ID/g
- tissue radioactivity, Kidney (5 min post injection): 22.17 ± 1.63 %ID/g
- tissue radioactivity, Kidney (15 min post injection): 24.55 ± 5.11 %ID/g
- tissue radioactivity, Kidney (30 min post injection): 23.19 ± 5.68 %ID/g
- tissue radioactivity, Kidney (60 min post injection): 14.55 ± 5.74 %ID/g
- tissue radioactivity, Kidney (120 min post injection): 15.60 ± 8.55 %ID/g
- tissue radioactivity, L. Intestine (5 min post injection): 1.54 ± 0.19 %ID/g
- tissue radioactivity, L. Intestine (15 min post injection): 1.53 ± 0.13 %ID/g
- tissue radioactivity, L. Intestine (30 min post injection): 1.69 ± 0.21 %ID/g
- tissue radioactivity, L. Intestine (60 min post injection): 1.37 ± 0.56 %ID/g
- tissue radioactivity, L. Intestine (120 min post injection): 2.09 ± 1.07 %ID/g
- tissue radioactivity, Liver (5 min post injection): 4.69 ± 0.66 %ID/g
- tissue radioactivity, Liver (15 min post injection): 6.67 ± 1.10 %ID/g
- tissue radioactivity, Liver (30 min post injection): 8.19 ± 1.59 %ID/g
- tissue radioactivity, Liver (60 min post injection): 6.80 ± 2.64 %ID/g
- tissue radioactivity, Liver (120 min post injection): 7.17 ± 2.99 %ID/g
- tissue radioactivity, Lung (5 min post injection): 106.4 ± 8.61 %ID/g
- tissue radioactivity, Lung (15 min post injection): 65.70 ± 11.3 %ID/g
- tissue radioactivity, Lung (30 min post injection): 38.36 ± 3.97 %ID/g
- tissue radioactivity, Lung (60 min post injection): 17.69 ± 5.77 %ID/g
- tissue radioactivity, Lung (120 min post injection): 13.22 ± 6.10 %ID/g
- tissue radioactivity, Muscle (5 min post injection): 0.83 ± 0.34 %ID/g
- tissue radioactivity, Muscle (15 min post injection): 1.19 ± 0.22 %ID/g
- tissue radioactivity, Muscle (30 min post injection): 2.01 ± 0.34 %ID/g
- tissue radioactivity, Muscle (60 min post injection): 1.52 ± 0.59 %ID/g
- tissue radioactivity, Muscle (120 min post injection): 1.45 ± 0.65 %ID/g
- tissue radioactivity, S. Intestine (5 min post injection): 3.30 ± 0.73 %ID/g
- tissue radioactivity, S. Intestine (15 min post injection): 4.54 ± 0.60 %ID/g
- tissue radioactivity, S. Intestine (30 min post injection): 4.43 ± 0.90 %ID/g
- tissue radioactivity, S. Intestine (60 min post injection): 3.43 ± 1.35 %ID/g
- tissue radioactivity, S. Intestine (120 min post injection): 3.78 ± 1.96 %ID/g
- tissue radioactivity, Spleen (5 min post injection): 17.63 ± 3.38 %ID/g
- tissue radioactivity, Spleen (15 min post injection): 25.11 ± 2.16 %ID/g
- tissue radioactivity, Spleen (30 min post injection): 23.27 ± 3.52 %ID/g
- tissue radioactivity, Spleen (60 min post injection): 14.24 ± 4.47 %ID/g
- tissue radioactivity, Spleen (120 min post injection): 13.82 ± 5.17 %ID/g
- tissue radioactivity, Stomach (5 min post injection): 1.86 ± 0.48 %ID/g
- tissue radioactivity, Stomach (15 min post injection): 2.13 ± 0.77 %ID/g
- tissue radioactivity, Stomach (30 min post injection): 1.84 ± 0.49 %ID/g
- tissue radioactivity, Stomach (60 min post injection): 0.98 ± 0.41 %ID/g
- tissue radioactivity, Stomach (120 min post injection): 1.97 ± 0.95 %ID/g

— publication PMC4745082, “A Novel PET Imaging Probe for the Detection and Monitoring of Translocator Protein 18 kDa Expression in Pathological Disorders” (Scientific Reports, 2016)
